Measured values from US20120065063A1, “3-Aryl-4-(2,6-dimethylbenzylidene)isoxazol-5(4H)-ones as Fungicides” (Bayer CropScience AG, priority 2010, published 2012).

Key:
[1] = system: Alternaria solani; assay: Alternaria test (tomato)/protective; format: in vivo; conditions: protective, 500 ppm, evaluation 7 days after inoculation
Procedure: Alternaria Test (Tomato)/Protective [table] To produce an appropriate active compound formulation, 1 part by weight of active compound is mixed with the specified amounts of solvent and emulsifier, and the concentrate is diluted with water to the desired concentration. To test for protective activity, young tomato plants are sprayed with the preparation of active compound at the stated application rate. 1 day after the treatment, the plants are inoculated with a spore suspension of Alternaria solani and then remain at 100% relative humidity and 20° C. for 24 h. The plants then remain at 96% relative atmospheric humidity and a temperature of 20° C.

[2] = system: Venturia inaequalis; assay: Venturia test (apple)/protective; format: in vivo; conditions: protective, 100 ppm, evaluation 10 days after inoculation
Procedure: Venturia Test (Apple)/Protective [table] To produce an appropriate active compound formulation, 1 part by weight of active compound is mixed with the specified amounts of solvent and emulsifier, and the concentrate is diluted with water to the desired concentration. To test for protective efficacy, young plants are sprayed with the active compound formulation at the stated application rate. After the spray coating has dried on, the plants are inoculated with an aqueous conidia suspension of the apple scab pathogen Venturia inaequalis and then remain in an incubation cabin at about 20° C. and 100% relative atmospheric humidity for 1 day. The plants are then placed in the greenhouse at about 21° C. and a relative atmospheric humidity of about 90%.

[3] = system: Sphaerotheca fuliginea; assay: Sphaerotheca test (cucumber)/protective; format: in vivo; conditions: protective, 500 ppm, evaluation 7 days after inoculation
Procedure: Sphaerotheca Test (Cucumber)/Protective [table] To produce an appropriate active compound formulation, 1 part by weight of active compound is mixed with the specified amounts of solvent and emulsifier, and the concentrate is diluted with water to the desired concentration. To test for protective activity, young cucumber plants are sprayed with the preparation of active compound at the stated application rate. 1 day after the treatment, the plants are inoculated with a spore suspension of Sphaerotheca fuliginea. The plants are then placed in a greenhouse at 70% relative atmospheric humidity and a temperature of 23° C.

[4] = system: Blumeria graminis f.sp. tritici; assay: Blumeria test (wheat)/protective; format: in vivo; conditions: protective, 1000 ppm, evaluation 7 days after inoculation
Procedure: Blumeria Test (Wheat)/Protective [table] To produce an appropriate active compound formulation, I part by weight of active compound is mixed with the specified amounts of solvent and emulsifier, and the concentrate is diluted with water to the desired concentration. To test for protective activity, young plants are sprayed with the preparation of active compound at the stated application rate. After the spray coating has dried on, the plants are dusted with spores of Blumeria graminis f.sp. tritici.

[5] = system: Plasmopara viticola; assay: Plasmopara test (grapevine)/protective; format: in vivo; conditions: protective, 100 ppm, evaluation 6 days after inoculation
Procedure: Plasmopara Test (Grapevine)/Protective [table] To produce an appropriate active compound formulation, I part by weight of active compound is mixed with the specified amounts of solvent and emulsifier, and the concentrate is diluted with water to the desired concentration. To test for protective efficacy, young plants are sprayed with the active compound formulation at the stated application rate. After the spray coating has dried on, the plants are inoculated with an aqueous spore suspension of Plasmopara viticola and then remain in an incubation cabin at about 20° C. and 100% relative atmospheric humidity for 1 day. The plants are then placed in a greenhouse at about 21° C. and about 90% atmospheric humidity for 4 days. The plants are then moistened and placed in an incubation cabin for 1 day.

[6] = system: Leptosphaeria nodorum; assay: In vitro test for determining the ED50 value with Leptosphaeria nodorum; format: cell-based; conditions: 50% inhibition of fungal growth, microtitre plates, 6 days, 20° C.
Procedure: In Vitro Test for Determining the ED50 Value with Leptosphaeria nodorum The cavities of 96-well microtitre plates are filled with 1.5 μl of a solution of the test compounds in DMSO. 150 μl of a glucose/peptone medium comprising the spores of the test fungus in a suitable concentration are introduced into each cavity. The test compounds in the microtitre cavities are used in concentrations of 20, 6, 2 and 0.6 ppm. The absorbance is determined photometrically at 620 nm. The microtitre plates are left at 20° C. and 85% relative atmospheric humidity for 6 days. Once the incubation time has passed, the growth of the test organisms is determined photometrically at a wavelength of 620 nm. The difference in absorbances before and after the incubation corresponds to the growth of the test fungi. Based on the difference of the absorbances at the various test concentrations and the difference of the absorbances of the untreated control, a dose/activity curve is calculated. The concentration required to inhibit fungal growth by 50% is determined and reported as ED50 value (=Effective Dose which causes 50% inhibition of growth) in ppm (=mg/l).

[7] = log P by HPLC on reversed-phase columns (EEC directive 79/831 Annex V.A8); format: physicochemical; conditions: acidic range pH 2.7, 0.1% aqueous formic acid/acetonitrile
Procedure: The log P values were measured according to EEC directive 79/831 Annex V.A8 by HPLC (High Performance Liquid Chromatography) on reversed-phase columns (C 18), using the method below:
The determination was carried out in the acidic range at pH 2.7 using the mobile phases 0.1% aqueous formic acid and acetonitrile; linear gradient from 10% acetonitrile to 95% acetonitrile.

[8] = system: Spodoptera frugiperda; assay: Spodoptera frugiperda test (spray treatment); format: in vivo; conditions: maize leaf discs, 500 g/ha
Procedure: Spodoptera frugiperda Test (Spray Treatment) [table] To produce a suitable preparation of active compound, 1 part by weight of active compound is mixed with the stated amounts of solvents and emulsifier, and the concentrate is diluted with emulsifier-containing water to the desired concentration. Discs of maize leaves (Zea mays) are sprayed with an active compound preparation of the desired concentration and, after drying, populated with caterpillars of the armyworm (Spodoptera frugiperda). After the desired period of time, the effect in % is determined. 100% means that all caterpillars have been killed; 0% means that none of the caterpillars have been killed.

[9] = system: Meloidogyne incognita; assay: Meloidogyne test (spray treatment); format: in vivo; conditions: lettuce, 20 ppm
Procedure: Meloidogyne Test (Spray Treatment) [table] To prepare a suitable active compound preparation, 1 part by weight of active compound is mixed with the stated amount of solvent and the concentrate is diluted with water to the desired concentration. Containers are filled with sand, solution of active compound, Meloidogyne incognita egg/larvae suspension and lettuce seeds. The lettuce seeds germinate and the plants develop. On the roots, galls are formed. After the desired period of time, the nematicidal action is determined in % by the gall formation. 100% means that no galls have been found; 0% means that the number of galls on the treated plants corresponds to that of the untreated control.

Q: With `O=C1ON=C(c2ccccc2)C1=Cc1ccc(Cl)cc1` [Compound A-2] as the compound, how does the efficacy [1] read?
A: The efficacy was 0%.

Q: What about the efficacy [2] of the same compound?
A: Its efficacy is 16%.

Q: And the efficacy [3]?
A: Its efficacy is 20%.

Q: What about the efficacy [4] of the same compound?
A: Its efficacy is 29%.

Q: What about the efficacy [5] of the same compound?
A: Its efficacy is 38%.

Q: Which efficacy [1] does the source give for `CC1=NOC(=O)C1=Cc1ccccc1` [Compound A-3] here?
A: The efficacy was 0%.

Q: What about the efficacy [2] of the same compound?
A: The efficacy was 48%.

Q: What about the efficacy [3] of the same compound?
A: The efficacy was 30%.

Q: What about the efficacy [4] of the same compound?
A: The efficacy was 57%.

Q: What about the efficacy [5] of the same compound?
A: The efficacy was 55%.

Q: For `CC1=NOC(=O)C1=Cc1ccc(C)cc1` [Compound A-4], which efficacy [1] is on record?
A: The efficacy was 0%.

Q: And the efficacy [2]?
A: Its efficacy is 9%.

Q: What about the ED50 [6] of the same compound?
A: Its ED50 is 14 ppm.

Q: What about the efficacy [3] of the same compound?
A: Its efficacy is 30%.

Q: What about the efficacy [4] of the same compound?
A: The efficacy was 43%.

Q: And the efficacy [5]?
A: The efficacy was 35%.

Q: For `COc1ccc(C=C2C(=O)ON=C2C)cc1` [Compound A-5], which efficacy [1] is on record?
A: Its efficacy is 0%.

Q: And the efficacy [2]?
A: The efficacy was 59%.

Q: What about the efficacy [3] of the same compound?
A: Its efficacy is 40%.

Q: What about the efficacy [4] of the same compound?
A: The efficacy was 29%.

Q: What about the efficacy [5] of the same compound?
A: The efficacy was 40%.

Q: With `O=C1ON=C(c2ccccc2)C1=Cc1ccccc1Cl` [Compound A-6] as the compound, how does the efficacy [1] read?
A: Its efficacy is 0%.

Q: What about the efficacy [2] of the same compound?
A: The efficacy was 14%.

Q: What about the efficacy [3] of the same compound?
A: The efficacy was 50%.

Q: What about the efficacy [4] of the same compound?
A: Its efficacy is 29%.

Q: And the efficacy [5]?
A: Its efficacy is 38%.

Q: For `CC1=NOC(=O)C1=Cc1ccc(N(C)C)cc1` [Compound A-7], which efficacy [1] is on record?
A: Its efficacy is 0%.

Q: What about the efficacy [2] of the same compound?
A: The efficacy was 0%.

Q: And the efficacy [3]?
A: Its efficacy is 10%.

Q: And the efficacy [4]?
A: Its efficacy is 0%.

Q: And the efficacy [5]?
A: The efficacy was 45%.

Q: With `CC1=NOC(=O)/C1=C\c1ccco1` [Compound A-8] as the compound, how does the efficacy [1] read?
A: The efficacy was 0%.

Q: What about the efficacy [2] of the same compound?
A: The efficacy was 6%.

Q: What about the efficacy [3] of the same compound?
A: The efficacy was 0%.

Q: And the efficacy [4]?
A: Its efficacy is 29%.

Q: And the efficacy [5]?
A: Its efficacy is 28%.

Q: Which results are given for `Cc1cc(C)c(C=C2C(=O)ON=C2c2c(F)cccc2F)c(C)c1` [Compound I-24]?
A: log P [7]: 4.09; activity (caterpillars killed) [8]: ≥ 80%

Q: What does the source list for `Cc1cc(C)c(C=C2C(=O)ON=C2c2ccc(Cl)cc2)c(C)c1` [Compound I-70]?
A: log P [7]: 4.50; activity (nematicidal action by gall formation) [9]: ≥ 80%
